The record followed here is US20220160867A1, “METHODS AND COMPOSITIONS COMPRISING CATIONIC LIPIDS FOR IMMUNOTHERAPY BY DIRECT TUMOR INJECTION” (PDS Biotechnology Corporation, priority 2020, published 2022).

The test has as its system HPV-positive TC-1 tumor cells. Description: TC-1 tumor model, tumor growth and survival after single treatment. In kind it is in vivo, B6 mice. On the procedure: FIG. 1 provides a survival plot: B6 mice (n=4 per group) were implanted with 50,000 TC1 tumor cells subcutaneously. On day 10, group 2 received tumor vaccine R-DOTAP−HPV mix formulation (100 μl) (ASP3-250-HPV mix) containing HPV antigens (ASP3/R-DOTAP (S.C.) in the opposite flank of the tumor and group 3 mice received intra-tumoral injection of R-DOTAP (50 μl of 6 mg/ml) (RDOTAP (IT)).
Three groups of mice were injected on day 0 with 50,000 HPV-positive TC-1 tumor cells. In order for a stringent test of antitumor effect, the tumors were allowed to grow to a size of 6-7 mm prior to treatment on Day 10. The aggressively growing tumors reached a size of 10 mm by Day 14. Group 1 mice (Naïve) were left untreated and had to be sacrificed by Day 16. The mice in Group 2 (ASP3/R-DOTAP S.C.) were treated with one subcutaneous injection of R-DOTAP+HPV16(49-57) antigen injection on the opposite flank to the tumor. The mice in Group 3 (R-DOTAP IT) were treated with a single intra-tumoral injection of R-DOTAP only. The tumor sizes and survival of all 3 groups were monitored.
FIG. 1 provides a survival plot: B6 mice (n=4 per group) were implanted with 50,000 TC1 tumor cells subcutaneously.

Regarding `CCCCCCCC/C=C\CCCCCCCC(=O)OC[C@@H](C[N+](C)(C)C)OC(=O)CCCCCCC/C=C\CCCCCCCC` [R-DOTAP, (R)-1,2-dioleoyl-3-trimethylammonium propane], under “intra-tumoral R-DOTAP only, 50 μl of 6 mg/ml, no antigen, compared with sub-cutaneous R-DOTAP+antigen”, the “antitumor efficacy (survival plot, FIG. 1)” value is recorded as “comparable antitumor efficacy”. The tumor growth rates entry (tumors 6-7 mm at single treatment on Day 10, data not shown) is on record as “dramatic slowing of the tumor growth rates”.
